What all share (assay): ≥ marks a high value that may be exact or a test limit, other limits are often not marked, values filed in µg/mL are converted to µM
The subject of assay [1] is Salmonella typhimurium KCTC 1926.
Assay [2] has as its system Bacillus subtilis KCTC 1918.
For assay [3], the system named is Staphylococcus aureus KCTC 1621.
Assay [4] relates to Escherichia coli KCTC 1682.
Assay [5] relates to Streptococcus pyogenes KCTC 3096.
The test system of assay [6] is Pseudomonas aeruginosa KCTC 1637.
Assay [7] concerns Pseudomonas aeruginosa 302.
Assay [8] concerns Escherichia coli 207.
Assay [9] concerns Escherichia coli ATCC 25922.
Assay [10] has as its system Candida albicans 4748.
Assay [11] deals with Acinetobacter sp. 301.
Assay [12] has as its system Candida tropicalis.
Assay [13] deals with Candida albicans SC5314.
Assay [14] relates to Pseudomonas syringae pv. actinidiae Psa3700.1.1.
Assay [15] has as its system Xanthomonas arboricola pv. pruni CFBP 5563.
Assay [16] concerns Candida krusei ATCC 6258.
The test system of assay [17] is Candida glabrata ATCC 15126.
Assay [18] concerns Candida tropicalis 4912.
Assay [19] concerns Candida albicans 4615.
In assay [20] the test system is Acinetobacter sp. 322.
Assay [21] concerns Candida tropicalis ATCC 13803.
Assay [22] concerns Klebsiella pneumoniae 341.
The subject of assay [23] is Acinetobacter sp. 312.
Assay [24] concerns Candida tropicalis 4345.
The test system of assay [25] is Escherichia coli 225.
The test system of assay [26] is Erwinia amylovora PMV 6076.
Assay [27] deals with Klebsiella pneumoniae 202.
The subject of assay [28] is Candida albicans 4762.
The subject of assay [29] is Xanthomonas fragariae Xf349-9A.
Assay [30] deals with Xanthomonas campestris pv. Vesicatoria 2133-2.
Assay [31] deals with Pseudomonas syringae pv. syringae EPS 94.
In assay [32] the test system is Klebsiella pneumoniae 305.
Assay [33] relates to Candida parapsilosis ATCC 22019.
Assay [34] relates to Escherichia coli 43.
For assay [35], the system named is Candida albicans.
In assay [36] the test system is Escherichia coli 35.
For assay [37], the system named is Klebsiella pneumoniae 913.
Assay [38] has as its system Enterobacter cloacae 2524.
The test system of assay [39] is Klebsiella pneumoniae 1625.
For assay [40], the system named is Enterobacter cloacae 6780.
Assay [41] concerns Escherichia coli 4530.
Assay [42] has as its system Escherichia coli 170.
Assay [43] deals with Pseudomonas aeruginosa 4677.
Assay [44] relates to Acinetobacter baumannii.
The test system of assay [45] is Escherichia coli IFO 12734.
Assay [46] concerns Staphylococcus aureus IFO 12732.
In assay [47] the test system is Bacillus subtilis IFO 3143.
Assay [48] has as its system Pseudomonas aeruginosa IFO 12582.
Assay [49] deals with Bacillus megaterium KCTC 1096.
Assay [50] concerns Proteus vulgaris.

≈ marks a conversion by molar mass, not a printed value.

`CC[C@H](C)[C@H](NC(=O)[C@H](CCCCN)NC(=O)[C@H](CCCCN)NC(=O)[C@H](Cc1ccccc1)NC(=O)[C@H](CC(C)C)NC(=O)[C@H](CCCCN)NC(=O)[C@H](Cc1c[nH]c2ccccc12)NC(=O)[C@@H](N)CCCCN)C(=O)N1CCC[C@H]1C(=O)N[C@@H](CCCCN)C(=O)N[C@@H](Cc1ccccc1)C(=O)N[C@@H](CC(C)C)C(=O)N[C@@H](Cc1cnc[nH]1)C(=O)N[C@@H](CO)C(=O)N[C@@H](C)C(=O)N[C@@H](CCCCN)C(=O)N[C@@H](CCCCN)C(=O)N[C@@H](Cc1ccccc1)C(N)=O` [KWKLFKKIPKFLHSAKKF]: the minimal inhibitory concentration (MIC) – broadly, the least concentration at which growth counts as inhibited – was 0.78 µM (≈ 1.77 µg/mL) in assay [1]; 1.56 µM (≈ 3.55 µg/mL) in assay [2]; 3.12 µM (≈ 7.11 µg/mL) in assay [3]; 6.25 µM (≈ 14.2 µg/mL) in assay [4]; 0.78 µM (≈ 1.77 µg/mL) in [5]; 3.12 µM (≈ 7.11 µg/mL) in assay [6].
Consider `CC(C)C[C@H](NC(=O)[C@H](CCC(N)=O)NC(=O)[C@H](CCCCN)NC(=O)[C@H](CCCN=C(N)N)NC(=O)[C@H](Cc1ccccc1)NC(=O)[C@@H](N)Cc1c[nH]c2ccccc12)C(=O)N[C@@H](CCCCN)C(=O)N[C@@H](Cc1c[nH]c2ccccc12)C(=O)O` [WFRKQLKW], for which the MIC in [7] was 6.71 µM (≈ 8 µg/mL); in assay [8], 1.68 µM (≈ 2 µg/mL); in [9] it was 0.839 µM (≈ 1 µg/mL); in assay [10] it was 21 µM (≈ 25 µg/mL); in assay [11] it was 2.37 µM (≈ 2.83 µg/mL); in assay [12], not below 83.9 µM. Besides, the minimum inhibitory concentration (MIC) in assay [13] is 10.5 µM (≈ 12.5 µg/mL); in assay [14], not below 50 µM; in assay [15], not below 50 µM; in assay [16], 21 µM (≈ 25 µg/mL); in assay [17] it was 21 µM (≈ 25 µg/mL); in assay [18], 10.5 µM (≈ 12.5 µg/mL). Also, the MIC in [19] was not below 42 µM; in [20], 3.36 µM (≈ 4 µg/mL); in assay [21], 21 µM (≈ 25 µg/mL); in assay [22] it was 1.68 µM (≈ 2 µg/mL); in assay [23], 4.75 µM (≈ 5.66 µg/mL); in assay [24], 21 µM (≈ 25 µg/mL). The minimal inhibitory concentration (MIC) in assay [25] is 0.839 µM (≈ 1 µg/mL); in [26], not below 50 µM; in assay [27] it was 6.71 µM (≈ 8 µg/mL); in [28] it was not below 83.9 µM; in assay [29], not below 50 µM; in assay [30] it was not below 50 µM. Besides, the MIC in assay [31] was not below 50 µM; in assay [32], 3.36 µM (≈ 4 µg/mL); in assay [33] it was 5.25 µM (≈ 6.25 µg/mL); in assay [34], 3.36 µM (≈ 4 µg/mL); in [35], 5.25 µM (≈ 6.25 µg/mL); in [36] it was 6.71 µM (≈ 8 µg/mL).
Turning to `CC[C@H](C)[C@H](N)C(=O)N[C@@H](CCCCN)C(=O)N[C@@H](CO)C(=O)N[C@H](C(=O)N[C@@H](C)C(=O)N[C@@H](CO)C(=O)N[C@@H](CCCCN)C(=O)N[C@H](C(=O)N[C@@H](C)C(=O)N[C@@H](CC(N)=O)C(=O)N[C@H](C(=O)N[C@H](C(=O)N[C@@H](CCC(N)=O)C(=O)N[C@@H](CCCCN)C(=O)N[C@@H](CC(C)C)C(=O)N[C@@H](CCCCN)C(=O)N[C@@H](CCCN=C(N)N)C(=O)N[C@@H](CCCCN)C(=O)N[C@@H](C)C(=O)N[C@@H](CCCCN)C(=O)N[C@@H](CC(N)=O)C(=O)N[C@@H](C)C(=O)N[C@H](C(=O)N[C@@H](C)C(=O)O)C(C)C)C(C)C)[C@@H](C)O)C(C)C)[C@@H](C)CC` [IKSIASKVANTVQKLKRKAKNAVA], the MIC was not below 50 µM in assay [37]; 12.5 µM (≈ 32.1 µg/mL) in [9]; 3.12 µM (≈ 8.01 µg/mL) in assay [38]; 6.25 µM (≈ 16 µg/mL) in [39]; not below 50 µM in assay [40]; not below 50 µM in assay [41]. Moreover, the values for the MIC in [42], in assay [43] and in [44] were 1.56 µM (≈ 4 µg/mL), not below 50 µM and 4.42 µM (≈ 11.3 µg/mL), respectively.
Turning to `CC(C)C[C@H](NC(=O)[C@H](Cc1ccc(O)cc1)NC(=O)[C@H](C)NC(=O)[C@@H](NC(=O)[C@H](CC(C)C)NC(=O)[C@H](C)NC(=O)[C@H](C)NC(=O)[C@H](CCCCN)NC(=O)CNC(=O)[C@@H](NC(=O)[C@H](C)NC(=O)[C@H](CCCCN)NC(=O)CNC(=O)[C@@H](NC(=O)[C@H](C)NC(=O)[C@H](C)NC(=O)[C@H](C)NC(=O)[C@H](CCCCN)NC(=O)[C@H](CCCCN)NC(=O)[C@H](Cc1ccccc1)NC(=O)[C@H](Cc1ccccc1)NC(=O)[C@H](CO)NC(=O)CNC(=O)[C@H](Cc1c[nH]c2ccccc12)NC(=O)CN)C(C)C)C(C)C)[C@@H](C)O)C(=O)O` [GWGSFFKKAAAVGKAVGKAALTAYL], the minimal inhibitory concentration (MIC) in assay [45] is 6.37 µM (≈ 16 µg/mL); in assay [46], 6.37 µM (≈ 16 µg/mL); in [47] it was 3.18 µM (≈ 8 µg/mL); in [48] it was 6.37 µM (≈ 16 µg/mL).
On to `CC[C@H](C)[C@H](NC(=O)[C@H](CCCCN)NC(=O)[C@H](CCCCN)NC(=O)[C@H](Cc1ccccc1)NC(=O)[C@H](Cc1c[nH]c2ccccc12)NC(=O)[C@@H](N)CCCCN)C(=O)N1CCC[C@H]1C(=O)N[C@@H](CCCCN)C(=O)N[C@@H](Cc1ccccc1)C(=O)N[C@@H](CC(C)C)C(=O)N[C@@H](Cc1cnc[nH]1)C(=O)N[C@@H](CC(C)C)C(=O)N[C@@H](CC(C)C)C(=O)N[C@@H](CCCCN)C(=O)N[C@@H](CCCCN)C(=O)N[C@@H](Cc1ccccc1)C(N)=O` [KWFKKIPKFLHLLKKF], for which the MIC in assay [2] amounted to 0.78 µM (≈ 1.64 µg/mL); in [3] it was 1.56 µM (≈ 3.28 µg/mL); in [49], 0.78 µM (≈ 1.64 µg/mL); in assay [4], 3.12 µM (≈ 6.56 µg/mL); in [6], 3.12 µM (≈ 6.56 µg/mL); in assay [50], 3.12 µM (≈ 6.56 µg/mL).

Source of the values: DBAASP.
